Data on 12 compounds can be found in publication PMC12655551, “Design, Synthesis, and Evaluation of Pyrrole-Based Selective MAO-B Inhibitors with Additional AChE Inhibitory and Neuroprotective Properties Identified via Virtual Screening” (Pharmaceuticals, 2025).

The target in test [1] is T1, recombinant human MAO-B (hMAOB) (Homo sapiens, UniProt P27338).
T1 sequence (P27338 1-520): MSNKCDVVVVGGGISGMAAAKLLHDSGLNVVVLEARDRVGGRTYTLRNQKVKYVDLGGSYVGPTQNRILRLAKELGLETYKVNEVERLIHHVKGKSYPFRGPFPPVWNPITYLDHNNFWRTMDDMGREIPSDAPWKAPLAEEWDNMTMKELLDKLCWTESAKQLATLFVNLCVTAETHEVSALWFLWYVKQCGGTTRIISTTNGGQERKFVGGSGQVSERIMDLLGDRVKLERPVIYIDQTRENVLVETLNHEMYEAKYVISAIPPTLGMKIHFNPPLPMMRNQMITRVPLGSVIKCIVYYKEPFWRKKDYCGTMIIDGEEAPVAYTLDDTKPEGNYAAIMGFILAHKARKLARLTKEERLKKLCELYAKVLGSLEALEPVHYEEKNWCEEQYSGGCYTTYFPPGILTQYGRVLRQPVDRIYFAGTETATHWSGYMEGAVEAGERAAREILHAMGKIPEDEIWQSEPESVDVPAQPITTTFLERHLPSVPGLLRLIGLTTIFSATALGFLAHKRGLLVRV
Put plainly: biochemical. Format: biochemical. Conditions: for inhibition at 1 µM: 1 µM compound. The protocol:
(§1) Monoamine oxidase (MAO) activity for both recombinant human MAO-A (hMAOA) and MAO-B (hMAOB) was assessed using a fluorometric assay based on the Amplex® UltraRed reagent. This method, originally reported by Bautista-Aguilera et al. and later adapted with minor changes by Kasabova-Angelova et al., detects hydrogen peroxide or peroxidase activity present in enzymes or biological samples. In this assay, Amplex® Red reacts in a 1:1 molar ratio with hydrogen peroxide in the presence of peroxidase, producing the red-fluorescent compound resorufin. Due to resorufin’s strong extinction coefficient (58,000 ± 5000 cm^−1·M^−1), measurements could be accurately taken using either fluorometric or spectrophotometric methods. […] The control conditions included the use of purified hMAOA or hMAOB in reaction buffer, enzyme solutions with hydrogen peroxide, and buffer alone. All the test compounds were initially prepared at a 1 µM final concentration. These compounds were combined with either hMAOA or hMAOB and loaded into a 96-well plate (with eight replicates per test compound), followed by incubation for 30 min at 37 °C in the dark. Subsequently, a 50 µL detection mix was added to each well. This mix contained Amplex® Red, horseradish peroxidase (HRP), and tyramine substrate, all prepared in a reaction buffer. As this enzymatic reaction proceeded continuously, the fluorescence signal was recorded every 30 min (at 0, 30, 60, 90, 120, and 150 min) to track enzymatic kinetics.

Test [2] has as its target T2, recombinant human MAO-A (hMAOA) (Homo sapiens, UniProt P21397).
T2 sequence (P21397 1-527): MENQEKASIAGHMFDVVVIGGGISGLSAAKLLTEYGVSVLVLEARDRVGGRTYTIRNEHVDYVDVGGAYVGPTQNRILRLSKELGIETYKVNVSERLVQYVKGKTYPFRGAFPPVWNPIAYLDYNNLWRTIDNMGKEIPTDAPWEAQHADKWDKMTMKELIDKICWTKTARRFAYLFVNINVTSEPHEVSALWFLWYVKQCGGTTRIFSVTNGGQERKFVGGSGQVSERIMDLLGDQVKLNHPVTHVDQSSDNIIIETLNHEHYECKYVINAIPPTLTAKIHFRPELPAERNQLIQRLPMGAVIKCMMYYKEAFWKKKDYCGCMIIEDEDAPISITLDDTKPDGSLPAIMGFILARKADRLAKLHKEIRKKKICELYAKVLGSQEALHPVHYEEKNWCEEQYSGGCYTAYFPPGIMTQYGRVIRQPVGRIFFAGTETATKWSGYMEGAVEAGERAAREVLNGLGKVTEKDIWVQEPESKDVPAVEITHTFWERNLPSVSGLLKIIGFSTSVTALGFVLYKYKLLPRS
Put plainly: MAO-A inhibition, fluorometric Amplex UltraRed assay. Format: biochemical. The following applies: for inhibition at 1 µM: 1 µM compound, read-out: Inhibition Activity 1 µM MAO-A; for IC50: means ± SD of three experiments, read-out: MAO-A IC50. The protocol:
as §1

The target of a further test is T3, BChE (Equus caballus, UniProt P81908).
T3 construct: purchased Sigma-Aldrich, Hamburg, Germany; host or cells: equine serum
T3 sequence (P81908 whole entry): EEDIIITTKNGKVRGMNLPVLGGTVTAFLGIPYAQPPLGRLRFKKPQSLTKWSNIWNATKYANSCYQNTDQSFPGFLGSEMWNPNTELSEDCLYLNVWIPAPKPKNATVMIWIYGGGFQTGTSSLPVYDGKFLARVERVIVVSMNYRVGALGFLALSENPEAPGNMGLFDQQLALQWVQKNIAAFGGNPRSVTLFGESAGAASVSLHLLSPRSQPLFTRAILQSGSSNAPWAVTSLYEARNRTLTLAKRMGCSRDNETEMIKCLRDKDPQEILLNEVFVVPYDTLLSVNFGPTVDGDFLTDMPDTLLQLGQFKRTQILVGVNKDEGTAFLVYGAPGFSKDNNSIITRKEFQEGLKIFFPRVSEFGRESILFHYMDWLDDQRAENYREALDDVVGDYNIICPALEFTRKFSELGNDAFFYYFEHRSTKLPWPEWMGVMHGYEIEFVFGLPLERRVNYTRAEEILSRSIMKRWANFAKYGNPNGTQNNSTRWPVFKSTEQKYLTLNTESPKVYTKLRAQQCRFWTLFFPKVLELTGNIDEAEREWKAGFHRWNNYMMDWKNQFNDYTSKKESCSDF
Put plainly: biochemical. The following applies: for IC50: means ± SD of three experiments, read-out: BChE IC50; for inhibition at 200 µM: read-out: Inhibition Activity 200 µM BChE. Here is the method:
(§2) AChE and BChE inhibitory activity of the newly synthesized pyrrole-based compounds was measured using the microplate assay described by Ellman et al. with the modifications added by López et al.. The compounds were tested at concentrations between 0.01 and 200 μM. First, they were dissolved in phosphate buffer (PBS) (8 mM K2HPO4, 2.3 mM NaH2PO4, 0.15 M NaCl, pH 7.5), assisted by the addition of no more than 5% MeOH. Then, they were serially diluted with PBS to provide the concentration range needed. Acetylcholinesterase from Electrophorus electricus and butyrylcholinesterase from equine serum (Sigma-Aldrich, Hamburg, Germany) were used with a substrate solution of 5,5′-dithiobis(2-nitrobenzoic acid) (DTNB) with acetylthiocholine iodide (ATCI) or butyrylthiocholine iodide (BTCI), respectively (0.04 M Na2HPO4, 0.2 mM DTNB, 0.24 mM ATCI or BTCI, pH 7.5). A total of 50 μL of AChE or BChE (0.25 U/mL, in PBS) and 50 μL of the tested compound solution were added to the wells. Incubation of the plates was performed at room temperature for 30 min. Then, 100 μL of substrate solution was added to start the enzymatic reaction. […] Enzyme activity was calculated as an inhibition percentage compared to an assay including buffer instead of an inhibitor.

Another test concerns the target T4, AChE (Electrophorus electricus, UniProt O42275).
T4 construct: purchased Sigma-Aldrich, Hamburg, Germany
Put plainly: biochemical. In kind it is biochemical. The following applies: for inhibition at 200 µM: 200 µM compound; for IC50: means ± SD of three experiments. The protocol:
as §2

Where [3] appears, read: means ± SD of three experiments.

The structures appear in SMILES notation.

T4 sequence (O42275 24-633): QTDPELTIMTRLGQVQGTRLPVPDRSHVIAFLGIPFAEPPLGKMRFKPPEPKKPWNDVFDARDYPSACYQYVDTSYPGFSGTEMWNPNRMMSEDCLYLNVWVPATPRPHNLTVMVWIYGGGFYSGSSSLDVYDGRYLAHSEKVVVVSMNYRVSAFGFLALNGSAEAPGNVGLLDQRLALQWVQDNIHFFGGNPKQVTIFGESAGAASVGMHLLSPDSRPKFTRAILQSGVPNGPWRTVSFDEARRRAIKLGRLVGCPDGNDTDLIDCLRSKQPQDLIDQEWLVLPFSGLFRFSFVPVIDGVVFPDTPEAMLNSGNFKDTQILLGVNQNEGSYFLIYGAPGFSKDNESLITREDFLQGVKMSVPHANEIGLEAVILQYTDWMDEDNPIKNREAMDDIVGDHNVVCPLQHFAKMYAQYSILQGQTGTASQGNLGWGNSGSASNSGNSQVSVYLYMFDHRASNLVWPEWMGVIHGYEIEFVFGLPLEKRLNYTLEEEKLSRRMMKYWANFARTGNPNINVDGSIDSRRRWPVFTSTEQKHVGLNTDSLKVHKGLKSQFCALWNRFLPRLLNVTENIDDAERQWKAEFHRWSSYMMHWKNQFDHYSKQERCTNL

For the compound `Cc1ccc(C)n1C(C)(C)CO` [EM-DC-14, 2-(2,5-dimethyl-1H-pyrrol-1-yl)-2-methylpropan-1-ol], the inhibition at 1 µM in test [1] and in test [2] was 75 ± 7.1% throughout. Besides, the IC50 (as a rule, the midpoint of a concentration-inhibition curve) is 0.46 ± 0.1 µM in test [1] (setting [3]), 0.44 ± 0.1 µM in test [2], greater than 200 µM at BChE and greater than 200 µM on AChE. Moreover, the results for the inhibition at 200 µM at BChE and against AChE were 0% and 33.2 ± 2.03%, respectively.
Consider `Cc1cc(-n2c(C)ccc2C)c2ccccc2n1` [EM-DC-13, 4-(2,5-dimethyl-1H-pyrrol-1-yl)-2-methylquinoline], for which the inhibition at 1 µM in test [1] and in test [2] was 80 ± 7.1% in each case. Moreover, the 50% inhibitory concentration (IC50) was 0.41 ± 0.1 µM in test [1] (setting [3]), 0.38 ± 0.1 µM in test [2], 10.5 ± 0.17 µM at BChE and 3.81 ± 0.26 µM on AChE. Besides, the inhibition (in general, the drop in the measured response relative to a control, in per cent) at 200 µM on BChE was determined as 83.81 ± 0.67%; against AChE, 91.2 ± 1.22%.
Regarding `Cc1ccc(C)n1C(CS)C(=O)O` (stereo not drawn) [EM-DC-15, 2-(2,5-dimethyl-1H-pyrrol-1-yl)-3-sulfanylpropanoic acid], the inhibition at 1 µM is 70 ± 7.1% in test [1] and 70 ± 7.2% in test [2]. Besides, the half-maximal inhibitory concentration (IC50) was 0.53 ± 0.1 µM in test [1] (setting [3]), 0.55 ± 0.1 µM in test [2], greater than 200 µM at BChE and 131 ± 1.85 µM at AChE. Moreover, the inhibition at 200 µM at BChE turned out to be 19.1 ± 2.47%; against AChE it was 63.9 ± 1.29%.
On to `Cc1ccc(C)n1-c1ccc2c(c1)OCO2` [EM-DC-6, 1-(2H-1,3-benzodioxol-5-yl)-2,5-dimethyl-1H-pyrrole], for which the values for the inhibition at 1 µM in test [1] and in test [2] were 98 ± 7.1% and 97 ± 7.1%, respectively. Besides, the IC50 in test [1] (setting [3]) was greater than 100 µM; in test [2], greater than 100 µM; on BChE, greater than 200 µM; against AChE, 128 ± 1.87 µM. Also, the inhibition at 200 µM at BChE stood at 36.3 ± 3.54%; against AChE, 65 ± 1.14%.
`Cc1ccc(C)n1CCc1ccc(O)cc1` [EM-DC-9, 4-[2-(2,5-dimethyl-1H-pyrrol-1-yl)ethyl]phenol]: the inhibition at 1 µM worked out at 98 ± 7.1% in test [1] and 98 ± 6.8% in test [2]. Further, the IC50 in test [1] (setting [3]) is greater than 100 µM; in test [2], greater than 100 µM; on BChE it was 69.5 ± 7.52 µM; against AChE, 76.8 ± 4.68 µM. Moreover, the inhibition at 200 µM on BChE turned out to be 73.7 ± 4.5%; on AChE, 72.9 ± 3.02%.
As to `Cc1ccc(C)n1-c1ccc(C(=O)O)cc1` [EM-DC-2, 4-(2,5-dimethyl-1H-pyrrol-1-yl)benzoic acid], the inhibition at 1 µM came to 75 ± 7.1% in test [1] and 75 ± 6.9% in test [2]. Besides, the IC50 is 0.43 ± 0.1 µM in test [2], 158 ± 11.8 µM on BChE and 0.75 ± 0.06 µM against AChE. Moreover, the values for the inhibition at 200 µM at BChE and on AChE were 57.2 ± 0.58% and 93.6 ± 4.66%, respectively.
For `Cc1ccc(C)n1CC(O)c1ccc(O)cc1` (stereo not drawn) [EM-DC-10, 4-[2-(2,5-dimethyl-1H-pyrrol-1-yl)-1-hydroxyethyl]phenol], the inhibition at 1 µM in test [1] was found to be 99 ± 7.1%; in test [2], 99 ± 6.8%. The IC50 in test [1] (setting [3]) is greater than 100 µM; in test [2] it was greater than 100 µM; on BChE, 11.3 ± 0.87 µM; on AChE, 148 ± 5.91 µM. Also, the inhibition at 200 µM at BChE came out at 87.2 ± 1.6%; on AChE it was 60.4 ± 1.05%.
Turning to `Cc1ccc(C)n1C(Cc1ccc(O)cc1)C(=O)O` (stereo not drawn) [EM-DC-20, 2-(2,5-dimethyl-1H-pyrrol-1-yl)-3-(4-hydroxyphenyl)propanoic acid], the inhibition at 1 µM in test [1] was 75 ± 7.1%; in test [2] it was 75 ± 6.4%. Further, the IC50 is 0.62 ± 0.1 µM in test [1] (setting [3]), 0.6 ± 0.1 µM in test [2], greater than 200 µM at BChE and greater than 200 µM on AChE. Also, the inhibition at 200 µM on BChE and at AChE was 0% throughout.
Turning to `Cc1ccc(C)n1CCc1ccccc1` [EM-DC-7, 2,5-dimethyl-1-(2-phenylethyl)-1H-pyrrole], the inhibition at 1 µM is 75 ± 7.1% in test [1] and 80 ± 7.2% in test [2]. Further, the IC50 in test [1] (setting [3]) was 0.49 ± 0.1 µM; in test [2], 0.51 ± 0.1 µM; on BChE, greater than 200 µM; at AChE it was greater than 200 µM. Further, the “MAO-B IC50” value in test [1] (setting [3]) was “submicromolar range”. For the same compound, the results for the inhibition at 200 µM at BChE and against AChE were 43.9 ± 1.7% and 11.9 ± 2.33%, respectively.
Regarding `Cc1ccc(C)n1-c1ccc(Br)cc1` [EM-DC-4, 1-(4-bromophenyl)-2,5-dimethyl-1H-pyrrole], the inhibition at 1 µM in test [1] amounted to 98 ± 7.1%; in test [2] it was 60 ± 6.8%. Besides, the IC50 was greater than 100 µM in test [1] (setting [3]), 0.32 ± 0.1 µM in test [2], greater than 200 µM at BChE and greater than 200 µM against AChE. The inhibition at 200 µM was determined as 0% at BChE and 1.4 ± 0.38% against AChE.
For `Cc1ccc(C)n1-c1ccc(C(=O)O)cc1O` [EM-DC-17, 4-(2,5-dimethyl-1H-pyrrol-1-yl)-3-hydroxybenzoic acid], the inhibition at 1 µM in test [1] worked out at 99 ± 7.1%; in test [2], 99 ± 6.6%. Besides, the IC50 in test [1] (setting [3]) is greater than 100 µM; in test [2], greater than 100 µM; on BChE, greater than 200 µM; against AChE it was greater than 200 µM. For the same compound, the inhibition at 200 µM worked out at 3.85 ± 2.99% on BChE and 0% on AChE.
Regarding `COc1ccc(C)cc1-n1c(C)ccc1C` [EM-DC-5, 1-(2-methoxy-5-methylphenyl)-2,5-dimethyl-1H-pyrrole], the inhibition at 1 µM in test [1] was 99 ± 7.1%; in test [2] it was 98 ± 7.3%. The half-inhibitory concentration (IC50) in test [1] (setting [3]) was greater than 100 µM; in test [2], greater than 100 µM; on BChE, 73.8 ± 5.96 µM; against AChE, greater than 200 µM. For the same compound, the inhibition at 200 µM at BChE stood at 74 ± 1.56%; on AChE, 39.8 ± 2.64%.
